Structures are written as SMILES. pKd: −log10 of the molar value.

Series [1] is described as follows: Pharmacokinetic studies in mice after single s.c. or oral dose.
Series [2] relates to FOXM1 target genes in DT22 cells. The experiment in a line: FOXM1 target gene expression by qRT-PCR, DT22. Format: cell-based, human. The settings on record: DT22, 24 h, at IC50 concentration. From the text:
RNA was extracted from cells and expression of different genes was monitored by qRT-PCR. Assays were run in triplicate. Values are mean±SEM. *, p<0.05; **, p<0.01; ***, p<0.001. RNA isolation and real-time PCR Total RNA was isolated using TRIzol (Invitrogen) and reverse transcribed using […] reverse transcriptase (New England BioLabs). […] Relative mRNA levels of genes were normalized to the housekeeping gene 36B4, and fold change calculated relative to the vehicle treated samples. Results are the average±SD from at least two independent experiments carried out in triplicate. Primer sequences for the genes studied were obtained from the Harvard Primer Bank. Sequences are available on their website.
On the technique in general: Real-time PCR tracks product formation cycle by cycle.

In series [3] the test system is FOXM1 target genes in MCF7 cells. The experiment in a line: FOXM1 target gene expression by qRT-PCR, MCF7. The settings on record: MCF7, 24 h, at IC50 concentration. It counts as cell-based, human. The procedure: RNA was extracted from cells and expression of different genes was monitored by qRT-PCR. Assays were run in triplicate. Values are mean±SEM. *, p<0.05; **, p<0.01; ***, p<0.001. RNA isolation and real-time PCR Total RNA was isolated using TRIzol (Invitrogen) and reverse transcribed using […] reverse transcriptase (New England BioLabs). Real-time PCR was performed using SYBRgreen PCR Master Mix (Roche) as described (Bergamaschi et al., Breast Cancer Res., 2014, 16:436). Relative mRNA levels of genes were normalized to the housekeeping gene 36B4, and fold change calculated relative to the vehicle treated samples. Results are the average±SD from at least two independent experiments carried out in triplicate. Primer sequences for the genes studied were obtained from the Harvard Primer Bank. Sequences are available on their website.

The subject of series [4] is FOXM1 cistrome genes in MDA-MB-231 cells. Put plainly: RNA-Seq Gene Set Enrichment Analysis, MDA-MB-231. It counts as cell-based, human. Conditions: NB-73 […] 24 h, siFOXM1 25 nM 72 h. The procedure: RNA-Seq transcriptional profiling and gene ontology analysis For gene expression analysis, total RNA was extracted from cells using Trizol reagent and further cleaned using the Turbo DNase and RNAqueous kits (ThermoFisher). Cells were treated with Veh (0.1% EtOH), or with the compounds indicated for 9 h or 24 h. Once the sample quality and replicate reproducibility were verified, samples from each group were subjected to sequencing. RNA at a concentration of 100 ng/μL in nuclease-free water was used for library construction. cDNA libraries were prepared with the mRNA-TruSeq Kit (Illumina, Inc.). In brief, the poly-A containing mRNA was purified from total RNA, the RNA was fragmented, double-stranded cDNA was generated from fragmented RNA, and adapters were ligated to the ends.
The paired-end read data from the HiSeq 4000 were processed and analyzed through a series of steps. […] Reads were trimmed of adapters and low expression data using Trimmomatic version 0.38. The star alignment tool version 2.5.3a was used to align the sequenced reads to the GRCh37 human genome from Ensembl. Gene counts were calculated using subread version 1.5.2. […]
Gene Set Enrichment Analysis (GSEA) was used for examination of the genome-wide expression profiles. Overrepresented GO biological processes were determined by the web-based DAVID Bioinformatics Resources database.

Series [5] relates to DT22 triple negative human breast tumor xenografts. The experiment in a line: DT22 triple negative breast tumor xenografts in NSG mice. Format: in vivo, mouse. The settings on record: for Expression of FOXM1-regulated genes in tumors: q-PCR at end of treatment. The procedure:
In vivo breast cancer xenograft studies For examination of the growth of triple-negative DT22 breast tumors, intact female NOD/SCID-gamma (NSG) mice were used. DT-22 cells (1×10^6 cells/mouse) were injected s.c. into the right axial mammary gland. Mice received s.c. injection or oral gavage daily or every second or third day, as indicated, with vehicle or FOXM1 inhibitor compound, and tumor growth was monitored over time.

The test system of series [6] is tamoxifen-resistant MCF7 breast cancer cells. Put plainly: Proliferation of tamoxifen-resistant MCF7 cells. The settings on record: 6 days. Format: cell-based, human. The protocol:
Values are mean±SD of three separate assays. Cell proliferation assay WST-1 assay (Roche, Basel, Switzerland) was used to quantify cell viability as described (Gong et al., Mol. Cell Endocrinol., 2016, 437:190-200). Absorbance was measured at 450 nm using a VICTOR X5 PerkinElmer 2030 Multilabel Plate Reader. All assays were performed in triplicate.

The next series has as its target T1, FOXM1 protein (Homo sapiens, UniProt Q08050).
T1 construct: a terbium donor was attached to purified full length FOXM1 through a streptavidin-biotin linker
T1 sequence (Q08050 1-763): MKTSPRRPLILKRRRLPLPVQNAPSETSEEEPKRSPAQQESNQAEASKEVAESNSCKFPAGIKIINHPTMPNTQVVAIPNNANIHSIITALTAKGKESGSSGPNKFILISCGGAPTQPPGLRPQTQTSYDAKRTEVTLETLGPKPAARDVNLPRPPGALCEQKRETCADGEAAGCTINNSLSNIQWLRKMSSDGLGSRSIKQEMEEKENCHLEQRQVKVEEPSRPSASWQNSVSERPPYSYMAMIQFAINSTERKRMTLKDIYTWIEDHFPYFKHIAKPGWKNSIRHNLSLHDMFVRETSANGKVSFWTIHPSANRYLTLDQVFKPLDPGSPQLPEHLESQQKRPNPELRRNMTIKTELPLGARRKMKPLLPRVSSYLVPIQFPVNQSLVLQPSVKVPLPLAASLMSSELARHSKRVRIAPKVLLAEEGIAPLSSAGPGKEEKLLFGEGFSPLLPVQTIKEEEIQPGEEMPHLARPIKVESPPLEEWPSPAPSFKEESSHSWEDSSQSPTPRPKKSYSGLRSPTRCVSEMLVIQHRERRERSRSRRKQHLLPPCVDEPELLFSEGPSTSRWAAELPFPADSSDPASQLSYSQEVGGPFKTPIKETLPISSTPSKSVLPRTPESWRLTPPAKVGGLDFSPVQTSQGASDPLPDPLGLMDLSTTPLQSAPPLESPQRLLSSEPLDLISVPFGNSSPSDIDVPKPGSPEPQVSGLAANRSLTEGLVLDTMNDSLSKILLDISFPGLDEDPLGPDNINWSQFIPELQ
The experiment in a line: Direct binding of Fl-NB-72 to FOXM1 by tr-FRET. The settings on record: direct tr-FRET titration. The procedure: Direct binding experiments for determination of Kd for Fl-NB-72. […] The Biotin-FOXM1 was diluted to a concentration of 3×(5 nM+1.25 nM SaTb). 5 μL of each of these were mixed on a black Molecular Devices microtiter plate with 5 μL of FRET buffer, so that each component was diluted 3×. Each point was prepared in duplicate, mixed, and incubated for 1 h at room temperature, in the dark. tr-FRET was measured on a Victor X5 microtiter plate reader with settings as given above.

A word on the half-life: it is the time needed for the level to fall by half in the phase considered. Low values mean fast loss, high ones slow loss. In general, AUC(0-t) refers to exposure summed from dosing to a finite time, without extrapolation to infinity. High values mean high exposure, low ones low exposure. As to `C[N+]1(CCCCCCOc2ccc(C(c3ccc(OCCCCCC[N+]4(C)CCCCCC4)cc3)=C3C4C[C@H]5C[C@@H](C4)C[C@H]3C5)cc2)CCCCCC1` [NB-73, 1,1′-((((((5r,7r)-adamantan-2-ylidene)methylene)bis(4,1-phenylene))bis(oxy))bis(hexane-6,1-diyl))bis(1-methylazepan-1-ium) diiodide], the half-life in series [1] (female, CD-1, mouse, plasma, sc) was 25 to 40 h; in series [1] (female, CD-1, mouse, plasma, sc, 60 mg/kg), 170 h. In series [1] (female, CD-1, mouse, plasma, sc, 60 mg/kg, PK s.c. AUC0-48, mice, 60 mg/kg s.c.), this molecule registered an AUC(0-t) of 190 µM·h. In addition, in series [1] (mice, 60 mg/kg p.o.), the “PK p.o. AUC0-48” value was “too low to measure”. Moreover, the “Blood levels after oral administration” value in series [1] (mice, oral, doses of FIGS. 6A-6B) was “very low levels”. For the same molecule, the “Blood levels after s.c. injection” value in series [1] (mice, s.c., doses of FIGS. 6A-6B) is on record as “very high blood levels”. Further, the “Expression of ATF3 (gene suppressed by FOXM1)” value in series [2] and in series [3] was “increased” in each case. Also, the “Expression of FOXM1 stimulated target genes (FOXM1C, AURKB, CCNB1, PLK1)” value in series [2] and in series [3] was “significantly reduced” in each case. The “GSEA enrichment against FOXM1 target gene sets” value in series [4] is on record as “negative enrichment scores”. In addition, the “Growth of DT22 tumor xenografts” value was “reduced tumor growth” in series [5] (5 mg/kg s.c. daily, every other day from day 21); “even more markedly suppressed growth” in series [5] (10 mg/kg s.c. daily, every other day from day 21); “greatly suppress tumor growth” in series [5] (s.c., 20 mg/kg every other day for first 10 days then 10 mg/kg every other day). The “Expression of FOXM1-regulated genes in tumors” value in series [5] (5 mg/kg s.c.) is reported as “significant reduction”; in series [5] (10 mg/kg s.c.), “greatly reduced”. Moreover, in series [5] (5 or 10 mg/kg s.c. every second or third day), the “Tumor growth in vivo, low doses” value is reported as “greatly suppress tumor growth”. Moreover, the “Effect on proliferation of tamoxifen-resistant MCF7 cells” value in series [6] is “effectively suppressed”.

As usually defined, the pKd is −log10 of the Kd, conventionally taken in molar units. In turn, `O=C(NCCCCCCOc1ccc(C(c2ccc(OCCCCCCN3CCCCCC3)cc2)=C2C3C[C@H]4C[C@@H](C3)C[C@H]2C4)cc1)c1ccc(-c2c3ccc(=O)cc-3oc3cc(O)ccc23)c(C(=O)O)c1` [Fl-NB-72, 5-((6-(4-((L′)-((5r,7r)-adamantan-2-ylidene)(4-((6-(azepan-1-yl)hexyl)oxy)phenyl)methyl)phenoxy)hexyl)carbamoyl)-2-(6-hydroxy-3-oxo-3H-xanthen-9-yl)benzoic acid] gave a pKd at FOXM1 protein of 7.64.

The values are drawn from patent publication US12187662B2, “FOXM1 inhibitor compositions and methods of using the same” (The Board of Trustees of the University of Illinois, priority 2018, dated 2025).
